Experimental findings from article PMC7539972, “Role of Two Exceptional trans Adenylation Domains and MbtH‐like Proteins in the Biosynthesis of the Nonribosomal Peptide WS9324A from Streptomyces calvus ATCC 13382” (Chembiochem, 2020) are described below.

Experiment in all cases: […]PPi release adenylation assay
Format in all cases: biochemical

Experiment [1] deals with T1, Cal23Asn/Cal4 complex (Streptomyces calvus, UniProt A0A0N9M336).
T1 construct: gene cal23; complete ORF, A-PCP didomain, N-terminal His6 tag; copurified with untagged MbtH-like protein Cal4; E. coli BL21(DE3) ΔybdZ; with MbtH-like protein
T1 sequence (A0A0N9M336 entry or part of it): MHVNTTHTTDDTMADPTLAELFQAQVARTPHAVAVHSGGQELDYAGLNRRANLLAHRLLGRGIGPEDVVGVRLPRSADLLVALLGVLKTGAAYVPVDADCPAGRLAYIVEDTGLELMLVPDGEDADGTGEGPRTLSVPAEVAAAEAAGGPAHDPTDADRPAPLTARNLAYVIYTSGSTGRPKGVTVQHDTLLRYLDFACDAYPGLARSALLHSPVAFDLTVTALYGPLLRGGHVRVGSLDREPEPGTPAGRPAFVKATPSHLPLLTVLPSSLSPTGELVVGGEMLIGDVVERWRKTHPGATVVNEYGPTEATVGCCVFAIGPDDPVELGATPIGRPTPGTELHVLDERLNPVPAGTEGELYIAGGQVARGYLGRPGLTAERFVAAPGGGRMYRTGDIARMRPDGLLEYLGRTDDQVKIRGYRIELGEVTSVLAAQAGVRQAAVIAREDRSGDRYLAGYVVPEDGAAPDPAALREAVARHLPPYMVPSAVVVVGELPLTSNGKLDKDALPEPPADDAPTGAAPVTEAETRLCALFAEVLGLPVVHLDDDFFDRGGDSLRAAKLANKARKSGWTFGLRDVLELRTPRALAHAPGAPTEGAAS
T1 sequence (A0A0N9M601 entry or part of it, further chain): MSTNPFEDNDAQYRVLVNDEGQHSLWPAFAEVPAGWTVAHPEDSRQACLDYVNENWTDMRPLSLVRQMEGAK
The following applies: co-substrate asparagine 0.2 mM; 0.15 mM ATP, 1 mM MgCl2, 25 °C, 3 h; labelled compound.

Experiment [2] deals with T2, Cal22Thr (Streptomyces calvus, UniProt A0A0N9LS39).
T2 construct: gene cal22; complete ORF, A-PCP didomain, N-terminal His6 tag; E. coli BL21(DE3) ΔybdZ, coexpressed with untagged Cal4 (Cal4 not copurified)
T2 sequence (A0A0N9LS39 entry or part of it): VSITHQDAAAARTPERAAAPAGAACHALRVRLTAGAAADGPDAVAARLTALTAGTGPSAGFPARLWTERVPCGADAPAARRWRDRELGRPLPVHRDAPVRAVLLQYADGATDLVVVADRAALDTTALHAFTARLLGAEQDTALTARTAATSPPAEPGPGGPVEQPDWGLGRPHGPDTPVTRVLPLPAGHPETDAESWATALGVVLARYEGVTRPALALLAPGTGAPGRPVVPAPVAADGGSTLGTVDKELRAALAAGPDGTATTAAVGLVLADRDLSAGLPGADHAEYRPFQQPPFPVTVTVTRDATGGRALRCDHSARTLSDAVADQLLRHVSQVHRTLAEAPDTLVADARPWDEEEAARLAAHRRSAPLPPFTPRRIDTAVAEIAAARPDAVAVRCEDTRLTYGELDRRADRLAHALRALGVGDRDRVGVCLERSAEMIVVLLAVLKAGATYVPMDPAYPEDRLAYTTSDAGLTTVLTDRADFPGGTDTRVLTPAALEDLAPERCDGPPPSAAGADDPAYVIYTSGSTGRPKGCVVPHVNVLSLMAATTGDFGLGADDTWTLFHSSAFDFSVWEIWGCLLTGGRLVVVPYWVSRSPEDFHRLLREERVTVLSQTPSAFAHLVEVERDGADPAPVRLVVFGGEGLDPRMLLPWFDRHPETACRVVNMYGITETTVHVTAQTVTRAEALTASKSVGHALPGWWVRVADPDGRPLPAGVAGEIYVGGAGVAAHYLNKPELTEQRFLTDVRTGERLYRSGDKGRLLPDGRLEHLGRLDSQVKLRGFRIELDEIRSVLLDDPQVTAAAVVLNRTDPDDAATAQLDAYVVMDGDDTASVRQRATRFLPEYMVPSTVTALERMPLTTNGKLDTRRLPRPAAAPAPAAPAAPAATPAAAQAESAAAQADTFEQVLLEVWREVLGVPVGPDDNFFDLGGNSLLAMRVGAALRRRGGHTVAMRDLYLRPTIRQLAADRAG
The following applies: co-substrate threonine 0.2 mM; 0.15 mM ATP, 1 mM MgCl2, 25 °C, 3 h; labelled compound.

Experiment [3] deals with T1, Cal23Asn/Cal4 complex. The settings on record: 0.2 mM amino acid, 0.15 mM ATP, 1 mM MgCl2, 25 °C, 3 h, 30 μM enzyme; most active of 20 proteinogenic amino acids.
Experiment [4] has as its target T2, Cal22Thr. The following applies: 0.2 mM amino acid, 0.15 mM ATP, 1 mM MgCl2, 25 °C, 3 h, 30 μM enzyme; most active of 20 proteinogenic amino acids.

Turning to `Nc1ncnc2c1ncn2[C@@H]1O[C@H](COP(=O)(O)OP(=O)(O)OP(=O)(O)O)[C@@H](O)[C@H]1O` [ATP], the “[33P]PPi release adenylation assay” value on Cal23Asn/Cal4 complex [1] and at Cal22Thr [2] was “the reaction of ATP with an amino acid to form an amino acyl adenylate was measured” each time.
`NC(=O)C[C@H](N)C(=O)O` [asparagine]: the relative adenylation activity result at Cal23Asn/Cal4 complex [3] is “Cal23Asn/Cal4 complex was most active towards asparagine, the predicted substrate of the A‐domain”.
On to `C[C@@H](O)[C@H](N)C(=O)O` [threonine], for which, on Cal22Thr [4], the relative adenylation activity entry was “Cal22Thr was observed to be most specific towards its predicted substrate threonine”.
